{"source": "patent US7611721B1", "about": "“Adjuvant combination formulations” (priority 2000, dated 2009)", "molecules": {"B1": {"name": "rIL-12: Recombinantly expressed murine IL-12 (Genetics Institute) (protein, UniProt P43431 23-215; P43432 23-335, looked up)", "Interleukin-12 subunit alpha": "RVIPVSGPARCLSQSRNLLKTTDDMVKTAREKLKHYSCTAEDIDHEDITRDQTSTLKTCLPLELHKNESCLATRETSSTTRGSCLPPQKTSLMMTLCLGSIYEDLKMYQTEFQAINAALQNHNHQQIILDKGMLVAIDELMQSLNHNGETLRQKPPVGEADPYRVKMKLCILLHAFSTRVVTINRVMGYLSSA", "Interleukin-12 subunit beta": "MWELEKDVYVVEVDWTPDAPGETVNLTCDTPEEDDITWTSDQRHGVIGSGKTLTITVKEFLDAGQYTCHKGGETLSHSHLLLHKKENGIWSTEILKNFKNKTFLKCEAPNYSGRFTCSWLVQRNMDLKFNIKSSSSSPDSRAVTCGMASLSAEKVTLDQRDYEKYSVSCQEDVTCPTAEETLPIELALEARQQNKYENYSTSFFIRDIIKPDPPKNLQMKPLKNSQVEVSWEYPDSWSTPHSYFSLKFFVRIQRKKEKMKETEEGCNQKGAFLVEKTSTEVQCKGGNVCVQAQDRYYNSSCSKWACVPCRVRS"}}, "key": {"T1SP10MN(A) (+Cys)": {"test_system": "T1SP10MN(A) (+Cys)", "assay": "Reciprocal anti-T1SP10MN(A) (+Cys) serum IgG and subclass endpoint titers, Balb/c mice", "format": "in vivo", "conditions": "n=3 Balb/c", "source_text": "The protocols of Experiment 2 were followed, except that the HIV peptide contained a cysteine at amino acid position 17, and the mice (n=3 Balb/c) were immunized subcutaneously on days 0 and 21, and bled for serological evaluation on days −1 (the day before first immunization), 13, 20 and 28. […] The HIV peptide T1SP10MN(A) (+Cys) (26) contains a cysteine at amino acid position 17 and is 40 residues long. T1SP10MN(A) (+Cys) was purchased from Genosys Biotechnologies (The Woodlands, Tex.).\nReciprocal anti-T1SP10MN(A) IgG endpoint titers were measured from individual mice and their geometric means (n=3 Balb/c) 28 days after initial immunization.\nThe protocols of Experiment 6 were followed, except that mice (n=3 Balb/c) were immunized subcutaneously on days 0 and 32, and bled for serological evaluation on day 38.\nReciprocal anti-T1SP10MN(A) (+Cys) IgG endpoint titers were measured from individual mice and their geometric means (n=3 Balb/c) 38 days after initial immunization."}, "[1]": {"test_system": "P815 cells pulsed with HIVMN CTL epitope peptide", "assay": "CTL analysis of spleen cells (chromium release)", "format": "cell-based", "conditions": "separate experiments; Balb/c mice immunized with peptide", "description": "FIG. 5 depicts the CTL activity of spleen cells isolated from mice seven days after secondary immunization. Spleen cells were harvested from groups of three Balb/c mice immunized on days 0 and 21 with 50 μg T1SP10MN(A) […] formulated with 50 μg MPL™ in 1% SE with or without 10 μg GM-CSF. Cells were cultured with the HIVMN CTL epitope peptide for seven days. IL-2 was added to the cultures for the last five days. Effector spleen cells were added to chromium-labelled P815 cells pulsed with HIVMN, another strain designated HIVIIIB or no peptide at the indicated ratios. Percent CTL activity was calculated as: […]\nThe protocols of Experiment 6 were followed regarding immunization of mice. The CTL activity of spleen cells isolated from mice seven days after secondary immunization was assessed. MPL™ SE was formulated with 50 μg MPL™ in 1% SE, with or without 10 μg GM-CSF, plus 50 μg T1SP10MN(A) (+Cys).\nFor CTL analysis, spleen cells were removed from immunized mice 14 days after primary, and seven days after secondary immunization. A protocol previously described (34) was essentially followed. […] Percent CTL activity was calculated as the percentage of chromium release using ((specific chromium release−spontaneous chromium release)/(maximal chromium release−spontaneous chromium release))×100. Chromium release was assessed after a six hour incubation period. […]"}, "[2]": {"test_system": "Neisseria gonorrhoeae Porin B protein", "assay": "Vaginal wash anti-Porin B protein IgG and IgA titers", "format": "in vivo, Swiss-Webster mice", "conditions": "Experiment 11; Swiss-Webster; starting dilution 1/5", "description": "Outbred Swiss-Webster mice were divided into six groups of five mice each. Each group received 1 μg of recombinant Porin B protein (from strain FA1090 with 16 amino acids at the amino-terminus from a phage, followed by the mature form of the Porin B protein). […] Mice were immunized subcutaneously in the rump with a total volume of 0.2 ml. Immunizations were administered at week 0 and week 4.\nMice were bled the day prior to each immunization, and at 13 days after the final immunization. Serum was analyzed from pools from mice within groups. […] All day 0 pre-immunization titers were less than 50. The starting dilution for vaginal lavage analysis was 1/5."}, "spleen cells": {"test_system": "spleen cells", "assay": "Spleen cell proliferation in response to RSV F protein", "format": "cell-based, Balb/c mice", "conditions": "Experiment 12; spleen cells 14 days post-secondary immunization; 2.5 μg/ml RSV F protein, 96 hours; normalized to ConA", "protocol": "Spleen cells were harvested at 14 days post-secondary immunization and were established in culture at a density of 5×10^5 cells. Cells were cultured for a total of 96 hours. ^3H-thymidine was added to cultures for the last 18 hours. Data are presented as a proliferation index normalized to cells stimulated in culture with ConA ([mean cpm Antigen/mean cpm ConA]−[mean cpm medium/mean cpm ConA])×100. As a result, cells cultured in medium have a background proliferation of 0."}, "RSV F protein": {"test_system": "RSV F protein", "sequence (P03420 137-574)": "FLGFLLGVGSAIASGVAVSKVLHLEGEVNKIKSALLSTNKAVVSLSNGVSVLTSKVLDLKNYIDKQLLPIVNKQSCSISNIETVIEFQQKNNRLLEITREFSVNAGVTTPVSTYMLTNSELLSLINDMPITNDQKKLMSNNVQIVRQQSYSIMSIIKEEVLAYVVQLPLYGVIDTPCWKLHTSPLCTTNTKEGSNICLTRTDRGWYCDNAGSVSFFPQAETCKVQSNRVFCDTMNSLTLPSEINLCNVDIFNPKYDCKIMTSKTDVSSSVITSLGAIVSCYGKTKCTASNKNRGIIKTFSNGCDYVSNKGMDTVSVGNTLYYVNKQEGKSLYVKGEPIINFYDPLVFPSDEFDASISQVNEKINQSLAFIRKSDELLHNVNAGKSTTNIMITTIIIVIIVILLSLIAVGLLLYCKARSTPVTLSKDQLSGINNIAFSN", "conditions": "pooled serum n=5 Balb/c"}, "[3]": {"conditions": "Experiment 6, immunized days 0 and 21, day 28"}, "[4]": {"conditions": "Experiment 7, immunized days 0 and 32, day 38"}, "[5]": {"conditions": "Experiment 12, 3 μg F protein i.m. week 0 and 4"}, "[6]": {"conditions": "Experiment 13, F protein week 0 and 4"}, "[7]": {"conditions": "Experiment 14, 3 μg F protein s.c. week 0 and 4"}}, "note": "Where “and” joins values, the source holds several entries; their conditions need not be identical. Identical values can stand only once. Like-named read-outs stand apart in the source and are kept apart here.", "data": [{"molecule": "3-O-deacylated monophosphoryl lipid A [MPL ™]", "values": [{"measurement": "Anti-HIV Peptide (+Cys) IgG1 GMT", "setting": "T1SP10MN(A) (+Cys); [3]", "result": "84,978"}, {"measurement": "Anti-HIV Peptide (+Cys) IgG1 endpoint titer, individual mice", "setting": "T1SP10MN(A) (+Cys); [3]", "result": "23,249 and 155,199 and 170,071"}, {"measurement": "Anti-HIV Peptide (+Cys) IgG2a GMT", "setting": "T1SP10MN(A) (+Cys); [3]", "result": "2,859"}, {"measurement": "Anti-HIV Peptide (+Cys) IgG2a endpoint titer, individual mice", "setting": "T1SP10MN(A) (+Cys); [3]", "result": "500 and 1,628 and 28,722"}, {"measurement": "Anti-HIV Peptide (+Cys) IgG2b GMT", "setting": "T1SP10MN(A) (+Cys); [3]", "result": "2,906"}, {"measurement": "Anti-HIV Peptide (+Cys) IgG2b endpoint titer, individual mice", "setting": "T1SP10MN(A) (+Cys); [3]", "result": "500 and 1,102 and 44,531"}, {"measurement": "Anti-HIV Peptide (+Cys) IgG GMT", "setting": "T1SP10MN(A) (+Cys); [3]", "result": "350,486"}, {"measurement": "Anti-HIV Peptide (+Cys) IgG endpoint titer, individual mice", "setting": "T1SP10MN(A) (+Cys); [3]", "result": "91,728 and 529,663 and 886,156"}, {"measurement": "Anti-HIV Peptide (+Cys) IgG1 GMT", "setting": "T1SP10MN(A) (+Cys); [4]", "result": "115,544"}, {"measurement": "Anti-HIV Peptide (+Cys) IgG1 endpoint titer, individual mice", "setting": "T1SP10MN(A) (+Cys); [4]", "result": "148,818 and 90,380 and 114,686"}, {"measurement": "Anti-HIV Peptide (+Cys) IgG2a GMT", "setting": "T1SP10MN(A) (+Cys); [4]", "result": "3,429"}, {"measurement": "Anti-HIV Peptide (+Cys) IgG2a endpoint titer, individual mice", "setting": "T1SP10MN(A) (+Cys); [4]", "result": "11,874 and 1,674 and 2,028"}, {"measurement": "Anti-HIV Peptide (+Cys) IgG2b GMT", "setting": "T1SP10MN(A) (+Cys); [4]", "result": "4,980"}, {"measurement": "Anti-HIV Peptide (+Cys) IgG2b endpoint titer, individual mice", "setting": "T1SP10MN(A) (+Cys); [4]", "result": "9,685 and 3,605 and 3,538"}, {"measurement": "Anti-HIV Peptide (+Cys) IgG GMT", "setting": "T1SP10MN(A) (+Cys); [4]", "result": "442,259"}, {"measurement": "Anti-HIV Peptide (+Cys) IgG endpoint titer, individual mice", "setting": "T1SP10MN(A) (+Cys); [4]", "result": "404,755 and 446,952 and 478,163"}, {"measurement": "Peptide-specific CTL responses", "setting": "[1]", "result": "< 30", "unit": "%"}, {"measurement": "Vaginal Wash IgA titer, anti-Porin B Protein", "setting": "[2]", "result": 5}, {"measurement": "Vaginal Wash IgG titer, anti-Porin B Protein", "setting": "[2]", "result": 54}, {"measurement": "Normalized Proliferation Index", "setting": "spleen cells", "result": 0.4}, {"measurement": "Reciprocal anti-RSV F Protein IgG1 endpoint titer, Week 3", "setting": "RSV F protein; [5]", "result": "28,134"}, {"measurement": "Reciprocal anti-RSV F Protein IgG1 endpoint titer, Week 6", "setting": "RSV F protein; [5]", "result": "900,863"}, {"measurement": "Reciprocal anti-RSV F Protein IgG2a endpoint titer, Week 3", "setting": "RSV F protein; [5]", "result": "11,882"}, {"measurement": "Reciprocal anti-RSV F Protein IgG2a endpoint titer, Week 6", "setting": "RSV F protein; [5]", "result": "1,057,108"}, {"measurement": "Reciprocal anti-RSV F Protein IgG endpoint titer, Week 3", "setting": "RSV F protein; [5]", "result": "124,197"}, {"measurement": "Reciprocal anti-RSV F Protein IgG endpoint titer, Week 6", "setting": "RSV F protein; [5]", "result": "3,310,838"}, {"measurement": "Reciprocal anti-RSV F Protein IgG1 endpoint titer, Week 3", "setting": "RSV F protein; [6]", "result": "21,930"}, {"measurement": "Reciprocal anti-RSV F Protein IgG1 endpoint titer, Week 6", "setting": "RSV F protein; [6]", "result": "1,384,927"}, {"measurement": "Reciprocal anti-RSV F Protein IgG2a endpoint titer, Week 3", "setting": "RSV F protein; [6]", "result": "61,253"}, {"measurement": "Reciprocal anti-RSV F Protein IgG2a endpoint titer, Week 6", "setting": "RSV F protein; [6]", "result": "955,685"}, {"measurement": "Reciprocal anti-RSV F Protein IgG endpoint titer, Week 3", "setting": "RSV F protein; [6]", "result": "104,702"}, {"measurement": "Reciprocal anti-RSV F Protein IgG endpoint titer, Week 6", "setting": "RSV F protein; [6]", "result": "6,153,833"}, {"measurement": "Reciprocal anti-RSV F Protein IgG1 endpoint titer, Week 3", "setting": "RSV F protein; [7]", "result": "55,767"}, {"measurement": "Reciprocal anti-RSV F Protein IgG1 endpoint titer, Week 6", "setting": "RSV F protein; [7]", "result": "402,128"}, {"measurement": "Reciprocal anti-RSV F Protein IgG2a endpoint titer, Week 3", "setting": "RSV F protein; [7]", "result": "8,397"}, {"measurement": "Reciprocal anti-RSV F Protein IgG2a endpoint titer, Week 6", "setting": "RSV F protein; [7]", "result": "170,252"}, {"measurement": "Reciprocal anti-RSV F Protein IgG endpoint titer, Week 3", "setting": "RSV F protein; [7]", "result": "26,179"}, {"measurement": "Reciprocal anti-RSV F Protein IgG endpoint titer, Week 6", "setting": "RSV F protein; [7]", "result": "3,467,097"}]}, {"molecule": "B1", "values": [{"measurement": "Vaginal Wash IgA titer, anti-Porin B Protein", "setting": "[2]", "result": 5}, {"measurement": "Vaginal Wash IgG titer, anti-Porin B Protein", "setting": "[2]", "result": 93}, {"measurement": "Reciprocal anti-RSV F Protein IgG1 endpoint titer, Week 3", "setting": "RSV F protein; [7]", "result": "3,442"}, {"measurement": "Reciprocal anti-RSV F Protein IgG1 endpoint titer, Week 6", "setting": "RSV F protein; [7]", "result": "1,345,099"}, {"measurement": "Reciprocal anti-RSV F Protein IgG2a endpoint titer, Week 3", "setting": "RSV F protein; [7]", "result": 500}, {"measurement": "Reciprocal anti-RSV F Protein IgG2a endpoint titer, Week 6", "setting": "RSV F protein; [7]", "result": "65,951"}, {"measurement": "Reciprocal anti-RSV F Protein IgG endpoint titer, Week 3", "setting": "RSV F protein; [7]", "result": "13,557"}, {"measurement": "Reciprocal anti-RSV F Protein IgG endpoint titer, Week 6", "setting": "RSV F protein; [7]", "result": "4,459,059"}]}]}
